Reference: ChEMBL document CHEMBL3885861, “Open TG-GATES”

Organism: Rattus norvegicus
Assay: Open TG-GATES - Regimen: Single
Type: toxicity, organism-based, Sprague-Dawley
Parameters: regimen Single, gender Male, age 6 weeks
Conditions: in vivo, po, route gavage; for gamma-GTP / ALP / ALT / AST / BUN / CRE / Ca / Cl / DBIL / GLC / IP / K / LDH / Na / PL / RALB / TBIL / TC / TG / TP: tissue Plasma; for Bas / Eos / Fbg / Hb / Ht / Lym / MCHC / MCV / Mono / Neu / PT / Plat / RBC / Ret / WBC / APTT: tissue Blood
[1] = 300 mg/kg, 3 h, dose level Middle
[2] = 300 mg/kg, 6 h, dose level Middle
[3] = 300 mg/kg, 9 h, dose level Middle
[4] = 300 mg/kg, 24 h, dose level Middle
[5] = 1000 mg/kg, 3 h, dose level High
[6] = 1000 mg/kg, 6 h, dose level High
[7] = 1000 mg/kg, 9 h, dose level High
[8] = 1000 mg/kg, 24 h, dose level High

O=C(O)c1cccnc1 [NIACIN]
gamma-GTP (100 mg/kg, 24 h, dose level Low): 1 IU/L
Bas [1]: 0%
Eos [1]: 1%
Fbg [1]: 304.8 mg/dL
Hb [1]: 13.1 g/dL
Ht [1]: 39.9%
Lym [1]: 79.2%
MCHC [1]: 32.9%
MCV [1]: 64.5 fL
Mono [1]: 2.4%
Neu [1]: 16.2%
PT [1]: 16 s
Plat [1]: 118.4 x10_4/uL
RBC [1]: 620.8 x10_4/ul
Ret [1]: 8.5%
WBC [1]: 82.2 x10_2/uL
ALP [1]: 1554 IU/L
ALT [1]: 38.4 IU/L
AST [1]: 73 IU/L
BUN [1]: 13.2 mg/dL
CRE [1]: 0.2 mg/dL
Ca [1]: 10.8 mg/dL
Cl [1]: 105.6 meq/L
DBIL [1]: 0.002 mg/dL
GLC [1]: 179.4 mg/dL
IP [1]: 9.3 mg/dL
K [1]: 3.7 meq/L
LDH [1]: 184 IU/L
Na [1]: 140.2 meq/L
PL [1]: 120.6 mg/dL
RALB [1]: 3 g/dL
TBIL [1]: 0 mg/dL
TC [1]: 73.6 mg/dL
TG [1]: 28.8 mg/dL
TP [1]: 5.6 g/dL
gamma-GTP [1]: 1.2 IU/L
Bas [2]: 0%
Eos [2]: 0.8%
Fbg [2]: 329.8 mg/dL
Hb [2]: 13.6 g/dL
Ht [2]: 41.4%
Lym [2]: 73%
MCHC [2]: 32.9%
MCV [2]: 62.9 fL
Mono [2]: 2.4%
Neu [2]: 23%
PT [2]: 16.6 s
Plat [2]: 119.6 x10_4/uL
RBC [2]: 657.8 x10_4/ul
Ret [2]: 8.4%
WBC [2]: 82.7 x10_2/uL
ALP [2]: 1294 IU/L
ALT [2]: 40.2 IU/L
AST [2]: 71.4 IU/L
BUN [2]: 12.6 mg/dL
CRE [2]: 0.1 mg/dL
Ca [2]: 10.6 mg/dL
Cl [2]: 106.4 meq/L
DBIL [2]: 0.002 mg/dL
GLC [2]: 182.4 mg/dL
IP [2]: 9.6 mg/dL
K [2]: 3.7 meq/L
LDH [2]: 211.8 IU/L
Na [2]: 140.6 meq/L
PL [2]: 125.8 mg/dL
RALB [2]: 3 g/dL
TBIL [2]: 0.002 mg/dL
TC [2]: 76.2 mg/dL
TG [2]: 31 mg/dL
TP [2]: 5.6 g/dL
gamma-GTP [2]: 1.4 IU/L
APTT [3]: 22.4 s
Bas [3]: 0%
Eos [3]: 0.8%
Fbg [3]: 304.4 mg/dL
Hb [3]: 13.1 g/dL
Ht [3]: 39.5%
Lym [3]: 71.8%
MCHC [3]: 33.3%
MCV [3]: 62.6 fL
Mono [3]: 2.2%
Plat [3]: 114.7 x10_4/uL
RBC [3]: 631.4 x10_4/ul
Ret [3]: 8.5%
WBC [3]: 72.8 x10_2/uL
ALP [3]: 1319 IU/L
ALT [3]: 38.4 IU/L
AST [3]: 72.2 IU/L
CRE [3]: 0.2 mg/dL
Ca [3]: 10.9 mg/dL
Cl [3]: 105.2 meq/L
DBIL [3]: 0.006 mg/dL
GLC [3]: 176 mg/dL
IP [3]: 9.1 mg/dL
K [3]: 4.2 meq/L
LDH [3]: 169.8 IU/L
Na [3]: 140.8 meq/L
PL [3]: 124.8 mg/dL
RALB [3]: 2.8 g/dL
TBIL [3]: 0.004 mg/dL
TC [3]: 70.2 mg/dL
TG [3]: 50.4 mg/dL
TP [3]: 5.3 g/dL
gamma-GTP [3]: 1.6 IU/L
Bas [4]: 0%
Eos [4]: 1%
Fbg [4]: 343 mg/dL
Hb [4]: 13.7 g/dL
Ht [4]: 40%
Lym [4]: 78.4%
MCHC [4]: 34.2%
MCV [4]: 62.5 fL
Mono [4]: 2.6%
Neu [4]: 16.6%
PT [4]: 16 s
Plat [4]: 120.8 x10_4/uL
RBC [4]: 640 x10_4/ul
Ret [4]: 6.4%
WBC [4]: 98.1 x10_2/uL
ALP [4]: 1858 IU/L
AST [4]: 70.4 IU/L
BUN [4]: 14 mg/dL
CRE [4]: 0.1 mg/dL
Ca [4]: 10.7 mg/dL
Cl [4]: 104.4 meq/L
DBIL [4]: 0 mg/dL
GLC [4]: 192 mg/dL
IP [4]: 7.9 mg/dL
K [4]: 4.1 meq/L
LDH [4]: 172.2 IU/L
Na [4]: 139.8 meq/L
PL [4]: 156.8 mg/dL
RALB [4]: 3 g/dL
TBIL [4]: 0 mg/dL
TC [4]: 79.4 mg/dL
TG [4]: 134.4 mg/dL
TP [4]: 5.6 g/dL
gamma-GTP [4]: 1.4 IU/L
Bas [5]: 0%
Eos [5]: 1.2%
Fbg [5]: 303 mg/dL
Hb [5]: 13.2 g/dL
Lym [5]: 75.2%
MCHC [5]: 32.8%
MCV [5]: 62.8 fL
Mono [5]: 2.4%
Neu [5]: 20%
PT [5]: 16.2 s
Plat [5]: 114.5 x10_4/uL
RBC [5]: 642.4 x10_4/ul
Ret [5]: 8.7%
WBC [5]: 70.3 x10_2/uL
ALP [5]: 1421 IU/L
ALT [5]: 43.6 IU/L
AST [5]: 79.4 IU/L
BUN [5]: 12.2 mg/dL
CRE [5]: 0.2 mg/dL
Ca [5]: 10.6 mg/dL
Cl [5]: 106.2 meq/L
DBIL [5]: 0 mg/dL
GLC [5]: 187 mg/dL
IP [5]: 9.4 mg/dL
K [5]: 3.6 meq/L
LDH [5]: 226.4 IU/L
Na [5]: 140.8 meq/L
PL [5]: 118.2 mg/dL
RALB [5]: 3.1 g/dL
TBIL [5]: 0 mg/dL
TC [5]: 72.4 mg/dL
TG [5]: 24.4 mg/dL
TP [5]: 5.6 g/dL
gamma-GTP [5]: 1.2 IU/L
Bas [6]: 0%
Eos [6]: 1%
Fbg [6]: 311 mg/dL
Hb [6]: 13.6 g/dL
Ht [6]: 41.3%
Lym [6]: 75.8%
MCHC [6]: 32.8%
MCV [6]: 64.6 fL
Mono [6]: 2%
Neu [6]: 20.4%
PT [6]: 16.4 s
Plat [6]: 121.3 x10_4/uL
RBC [6]: 641.2 x10_4/ul
Ret [6]: 8.2%
WBC [6]: 74.6 x10_2/uL
ALP [6]: 1566.4 IU/L
ALT [6]: 35 IU/L
AST [6]: 74.6 IU/L
BUN [6]: 12.4 mg/dL
CRE [6]: 0.2 mg/dL
Ca [6]: 10.6 mg/dL
Cl [6]: 107.6 meq/L
DBIL [6]: 0 mg/dL
GLC [6]: 181 mg/dL
IP [6]: 9.2 mg/dL
K [6]: 3.8 meq/L
LDH [6]: 210.8 IU/L
Na [6]: 139.6 meq/L
PL [6]: 115.2 mg/dL
RALB [6]: 3 g/dL
TBIL [6]: 0 mg/dL
TC [6]: 69.6 mg/dL
TG [6]: 27.8 mg/dL
TP [6]: 5.6 g/dL
gamma-GTP [6]: 1.4 IU/L
APTT [7]: 22.8 s
Bas [7]: 0%
Eos [7]: 1%
Fbg [7]: 324 mg/dL
Hb [7]: 13.3 g/dL
Lym [7]: 67%
MCHC [7]: 33%
MCV [7]: 62 fL
Mono [7]: 1.8%
Neu [7]: 29.8%
PT [7]: 15.6 s
Plat [7]: 116.6 x10_4/uL
RBC [7]: 651 x10_4/ul
Ret [7]: 8%
WBC [7]: 71.1 x10_2/uL
ALP [7]: 1673.4 IU/L
ALT [7]: 41.2 IU/L
AST [7]: 75.2 IU/L
BUN [7]: 13 mg/dL
CRE [7]: 0.2 mg/dL
Ca [7]: 10.8 mg/dL
Cl [7]: 106.8 meq/L
DBIL [7]: 0.004 mg/dL
GLC [7]: 171.2 mg/dL
IP [7]: 9.4 mg/dL
K [7]: 3.9 meq/L
LDH [7]: 198.2 IU/L
Na [7]: 139.8 meq/L
PL [7]: 101.2 mg/dL
RALB [7]: 3.1 g/dL
TBIL [7]: 0.002 mg/dL
TC [7]: 60.6 mg/dL
TG [7]: 17.2 mg/dL
TP [7]: 5.5 g/dL
gamma-GTP [7]: 1.2 IU/L
Bas [8]: 0%
Eos [8]: 1%
Fbg [8]: 319 mg/dL
Hb [8]: 13.3 g/dL
Ht [8]: 39.7%
Lym [8]: 71.4%
MCHC [8]: 33.4%
MCV [8]: 63.3 fL
Mono [8]: 3%
Neu [8]: 23.2%
PT [8]: 15.9 s
Plat [8]: 117.3 x10_4/uL
RBC [8]: 627 x10_4/ul
Ret [8]: 7.2%
WBC [8]: 92.1 x10_2/uL
ALP [8]: 1735.4 IU/L
ALT [8]: 53 IU/L
AST [8]: 75.4 IU/L
BUN [8]: 16.6 mg/dL
CRE [8]: 0.2 mg/dL
Ca [8]: 10.5 mg/dL
Cl [8]: 104.4 meq/L
DBIL [8]: 0 mg/dL
GLC [8]: 188.6 mg/dL
IP [8]: 8.1 mg/dL
K [8]: 4.1 meq/L
LDH [8]: 174.8 IU/L
Na [8]: 139.6 meq/L
PL [8]: 144.2 mg/dL
RALB [8]: 3 g/dL
TBIL [8]: 0 mg/dL
TC [8]: 70.6 mg/dL
TG [8]: 119.2 mg/dL
TP [8]: 5.4 g/dL
gamma-GTP [8]: 1 IU/L
